Source: PubChem BioAssay (NCI)
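Here, GI50 denotes the concentration required for 50% inhibition of growth. TGI marks complete inhibition of growth.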

Tests used:
Experiment in all cases: inhibition of tumour cell growth, NCI panel, 384-well format
OVCAR-4 ovarian = tested on: OVCAR-4 ovarian
NCI-H23 lung = tested on: NCI-H23 lung
MDA-MB-231 breast = tested on: MDA-MB-231 breast
UO-31 renal = tested on: UO-31 renal
SK-MEL-28 melanoma = tested on: SK-MEL-28 melanoma
NCI/ADR-RES ovarian = tested on: NCI/ADR-RES ovarian
IGROV1 ovarian = tested on: IGROV1 ovarian
RPMI-8226 leukemia = tested on: RPMI-8226 leukemia
TK-10 renal = tested on: TK-10 renal
SF-295 CNS = tested on: SF-295 CNS
ACHN renal = tested on: ACHN renal
SN12C renal = tested on: SN12C renal
CAKI-1 renal = tested on: CAKI-1 renal
PC-3 prostate = tested on: PC-3 prostate
SK-MEL-2 melanoma = tested on: SK-MEL-2 melanoma
HCT-15 colon = tested on: HCT-15 colon
OVCAR-8 ovarian = tested on: OVCAR-8 ovarian
HCT-116 colon = tested on: HCT-116 colon
KM12 colon = tested on: KM12 colon
MCF7 breast = tested on: MCF7 breast
MDA-MB-468 breast = tested on: MDA-MB-468 breast
CCRF-CEM leukemia = tested on: CCRF-CEM leukemia
COLO 205 colon = tested on: COLO 205 colon
HCC-2998 colon = tested on: HCC-2998 colon
SF-539 CNS = tested on: SF-539 CNS
NCI-H226 lung = tested on: NCI-H226 lung
U251 glioblastoma = tested on: U251 glioblastoma
SK-MEL-5 melanoma = tested on: SK-MEL-5 melanoma
MALME-3M melanoma = tested on: MALME-3M melanoma
K-562 leukemia = tested on: K-562 leukemia
MOLT-4 leukemia = tested on: MOLT-4 leukemia
SNB-19 CNS = tested on: SNB-19 CNS
SW-620 colon = tested on: SW-620 colon
M14 melanoma = tested on: M14 melanoma
UACC-62 melanoma = tested on: UACC-62 melanoma
HOP-62 NSCLC = tested on: HOP-62 NSCLC
HS 578T breast = tested on: HS 578T breast
SR leukemia = tested on: SR leukemia
OVCAR-5 ovarian = tested on: OVCAR-5 ovarian
NCI-H522 lung = tested on: NCI-H522 lung
MDA-MB-435 melanoma = tested on: MDA-MB-435 melanoma
NCI-H460 NSCLC = tested on: NCI-H460 NSCLC
HOP-92 NSCLC = tested on: HOP-92 NSCLC
EKVX NSCLC = tested on: EKVX NSCLC
SF-268 CNS = tested on: SF-268 CNS
T-47D breast = tested on: T-47D breast
NCI-H322M lung = tested on: NCI-H322M lung

Compound: CC(C)(O)CNc1nc(Nc2ccnc(C(F)(F)F)c2)nc(-c2cccc(C(F)(F)F)n2)n1
- GI50 (OVCAR-4 ovarian): 19.7 µM
- TGI (OVCAR-4 ovarian): 36.3 µM
- GI50 (NCI-H23 lung): 18.7 µM
- TGI (NCI-H23 lung): 35.6 µM
- GI50 (MDA-MB-231 breast): 18.7 µM
- TGI (MDA-MB-231 breast): 34.5 µM
- GI50 (UO-31 renal): 21.1 µM
- TGI (UO-31 renal): 40.9 µM
- GI50 (SK-MEL-28 melanoma): 16.9 µM
- TGI (SK-MEL-28 melanoma): 31 µM
- GI50 (NCI/ADR-RES ovarian): 13.9 µM
- TGI (NCI/ADR-RES ovarian): 27.5 µM
- GI50 (IGROV1 ovarian): 18.6 µM
- TGI (IGROV1 ovarian): 37.4 µM
- GI50 (RPMI-8226 leukemia): 18.7 µM
- TGI (RPMI-8226 leukemia): 32.9 µM
- GI50 (TK-10 renal): 19.8 µM
- TGI (TK-10 renal): 43.4 µM
- GI50 (SF-295 CNS): 16 µM
- TGI (SF-295 CNS): 29.8 µM
- GI50 (ACHN renal): 20.9 µM
- TGI (ACHN renal): 40.5 µM
- GI50 (SN12C renal): 19.8 µM
- TGI (SN12C renal): 40.8 µM
- GI50 (CAKI-1 renal): 21.3 µM
- TGI (CAKI-1 renal): 45.2 µM
- GI50 (PC-3 prostate): 18.2 µM
- TGI (PC-3 prostate): 33.9 µM
- GI50 (SK-MEL-2 melanoma): 0.265 µM
- TGI (SK-MEL-2 melanoma): 1.17 µM
- GI50 (HCT-15 colon): 13.5 µM
- TGI (HCT-15 colon): 28.1 µM
- GI50 (OVCAR-8 ovarian): 17.4 µM
- TGI (OVCAR-8 ovarian): 38.3 µM
- GI50 (HCT-116 colon): 17.3 µM
- TGI (HCT-116 colon): 33.2 µM
- GI50 (KM12 colon): 17.9 µM
- TGI (KM12 colon): 34.8 µM
- GI50 (MCF7 breast): 15.9 µM
- TGI (MCF7 breast): 30.5 µM
- GI50 (MDA-MB-468 breast): 20.3 µM
- TGI (MDA-MB-468 breast): 35 µM
- GI50 (CCRF-CEM leukemia): 14.4 µM
- TGI (CCRF-CEM leukemia): 28.1 µM
- GI50 (COLO 205 colon): 18.5 µM
- TGI (COLO 205 colon): 34.8 µM
- GI50 (HCC-2998 colon): 16.3 µM
- TGI (HCC-2998 colon): 30.4 µM
- GI50 (SF-539 CNS): 16.3 µM
- TGI (SF-539 CNS): 30.9 µM
- GI50 (NCI-H226 lung): 16.2 µM
- TGI (NCI-H226 lung): 31.7 µM
- GI50 (U251 glioblastoma): 18.8 µM
- TGI (U251 glioblastoma): 38.7 µM
- GI50 (SK-MEL-5 melanoma): 13.8 µM
- TGI (SK-MEL-5 melanoma): 26.8 µM
- GI50 (MALME-3M melanoma): 18.4 µM
- TGI (MALME-3M melanoma): 33.9 µM
- GI50 (K-562 leukemia): 14.7 µM
- TGI (K-562 leukemia): 28.7 µM
- GI50 (MOLT-4 leukemia): 13.7 µM
- TGI (MOLT-4 leukemia): 26.8 µM
- GI50 (SNB-19 CNS): 32.3 µM
- TGI (SNB-19 CNS): 87.2 µM
- GI50 (SW-620 colon): 24.4 µM
- TGI (SW-620 colon): 55.2 µM
- GI50 (M14 melanoma): 19.8 µM
- TGI (M14 melanoma): 35.2 µM
- GI50 (UACC-62 melanoma): 17.8 µM
- TGI (UACC-62 melanoma): 31.8 µM
- GI50 (HOP-62 NSCLC): 15.1 µM
- TGI (HOP-62 NSCLC): 28.8 µM
- GI50 (HS 578T breast): 14.6 µM
- TGI (HS 578T breast): 29.5 µM
- GI50 (SR leukemia): 4.82 µM
- TGI (SR leukemia): 17.5 µM
- GI50 (OVCAR-5 ovarian): 27.3 µM
- TGI (OVCAR-5 ovarian): 73.5 µM
- GI50 (NCI-H522 lung): 17.5 µM
- TGI (NCI-H522 lung): 35.4 µM
- GI50 (MDA-MB-435 melanoma): 19.9 µM
- TGI (MDA-MB-435 melanoma): 37.7 µM
- GI50 (NCI-H460 NSCLC): 17.5 µM
- TGI (NCI-H460 NSCLC): 32.6 µM
- GI50 (HOP-92 NSCLC): 19.3 µM
- TGI (HOP-92 NSCLC): 37.7 µM
- GI50 (EKVX NSCLC): 19 µM
- TGI (EKVX NSCLC): 38.5 µM
- GI50 (SF-268 CNS): 20.2 µM
- TGI (SF-268 CNS): 40.3 µM
- GI50 (T-47D breast): 9.87 µM
- TGI (T-47D breast): 23 µM
- GI50 (NCI-H322M lung): 16.1 µM
- TGI (NCI-H322M lung): 31.4 µM
